{"source": "paper PMC2908543", "about": "“Uropathogenic Escherichia coli Modulates Immune Responses and Its Curli Fimbriae Interact with the Antimicrobial Peptide LL-37” (PLoS Pathogens, 2010)", "key": {"[1]": {"tested_on": "E. coli strain No. 12 and isogenic mutants", "assay_type": "cell-based, Escherichia coli", "conditions": "bacteria pre-grown planktonically, curli expression suppressed (data not shown)", "procedure": "For further investigation, E. coli isolate No. 12 from a child with pyelonephritis was chosen. This was a typical isolate expressing both curli and cellulose as well as type 1 fimbriae and yielding an approximately median level of biofilm as measured on microtiter plates. One-step knockout of bcsA and csgBA was carried out according to the protocol of Datsenko and Wanner with modifications, [50]. The following mutants were constructed using oligos listed in Table 1; WE1 bcsA::Cm, deficient in cellulose production; WE11 csgBA::Cm, deficient in curli production; and WE16 csgBA bscA::Cm, deficient in both cellulose and curli production. Expression of curli and cellulose in strain No. 12 was confirmed by these knockouts. Production of type 1 fimbriae under the culture conditions used for experiments was confirmed by yeast agglutination (see below).\nThe susceptibility of wild-type and mutant E. coli strains to synthetic LL-37 and mCRAMP (Innovagen AB, Lund, Sweden) was determined using a broth microdilution method. Briefly, bacteria were grown overnight at 37°C on LB plates with or without salt, inhibiting or promoting the formation of biofilm, respectively. Then, bacteria were suspended in PBS and diluted in LB broth without salt in a concentration of 10^5 CFU/ml. The bacterial concentration was verified by viable count after serial dilutions in PBS. Bacteria (90 µl suspension) were grown in 96-well plates in the presence of 10 µl aqueous solution of synthetic LL-37 or mCRAMP in final concentrations ranging from 0.6 µM to 20 µM in 2-fold dilutions. After 20 h, bacterial viability was measured colorimetrically by reduction of Alamar blue (BioSource International, Camarillo, CA, USA) for 1 h at 37°C [57]. The IC50 was determined as the peptide concentration that gave 50% reduction of the absorbance at 570 nm relative to bacteria grown without peptide."}, "CsgA polymerization": {"biological_target": "T1, CsgA polymerization (Escherichia coli, UniProt P28307)", "T1 construct": "made in house; host or cells: E. coli LSR12 (C600::csg), co-expressed with CsgG", "T1 sequence (P28307 21-151)": "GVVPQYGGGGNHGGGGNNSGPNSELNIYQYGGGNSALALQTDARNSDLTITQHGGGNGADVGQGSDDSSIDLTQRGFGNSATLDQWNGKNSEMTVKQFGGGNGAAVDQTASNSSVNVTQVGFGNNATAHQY", "experiment": "CsgA polymerization, Thioflavin T assay, Tecan plate reader", "assay_type": "biochemical", "conditions": "20 µM ThT, 37°C", "procedure": "(§1) CsgA-His6 and CsgG, a lipoprotein that is required for CsgA secretion, were overexpressed in LSR12 (C600::csg). The purification procedure of recombinant CsgA-His6 was performed as previously described with some modifications. The filtrate was incubated with nickel-nitrilotriacetic acid (Ni-NTA) agarose (Invitrogen) for 1 h at 4°C with shaking, centrifuged at 200×g for 5 min and transferred to a polyprep chromatography column (Bio-Rad, Hercules, CA, USA). To confirm protein identity of CsgA-His6, the isolated protein was prepared and subjected to SDS-PAGE as described below, and thereafter the protein was transferred from the gel to a polyvinylidene fluoride (PVDF) membrane (Invitrogen) at 160 mA for 60 min. The band of 15 kDa, corresponding to the molecular weight of CsgA-His6, was excised from the membrane stained with Coomassie Blue and analysed with N-terminal sequence analysis as has been described. Since it has previously been shown that CsgA-His6 has the same polymerizing properties as wild-type CsgA [59], we refer to CsgA-His6 as CsgA.\nPurified recombinant monomeric CsgA (10 µM) with or without different concentrations of the peptides LL-37, sLL-37 or VIP was mixed with 20 µM of the fiber-specific fluorescent probe ThT (Sigma-Aldrich). Fluorescence was measured with a Tecan infinite M200 reader (Tecan Nordic AB, Täby, Sweden). The excitation and emission wavelength was 430 and 490 nm, respectively. Measurements were conducted at 37°C every 10 min after shaking the sample for five seconds. Background fluorescence of the peptides themselves was subtracted."}, "CsgA": {"tested_on": "CsgA", "experiment": "CD spectroscopy of CsgA", "parameters": "species or system Escherichia coli", "conditions": "40 µM CsgA alone, 50 mM KPi, 0.02% NaN3, pH 7.2, 60 h at 37°C", "procedure": "Samples containing 40 µM CsgA in 50 mM potassium phosphate buffer (KPi) and 0.02% NaN3, pH 7.2, with and without 10 µM LL-37 were incubated for 60 h at 37°C. The samples were then assayed with a Jasco J-810 spectropolarimeter from 190 to 250 nm in a quartz cell with a 1-mm path length at 20°C. The spectrum of buffer alone and LL-37 in buffer was subtracted from the spectra for CsgA alone and for CsgA together with LL-37, respectively."}, "toll-like receptor 2": {"tested_on": "toll-like receptor 2", "conditions": "cytokine induction by Salmonella; ref [31]; cited from earlier work", "excerpt": "In the pathogenesis of infection, curli fimbriae have previously been implicated in the attachment and invasion of host cells, interaction with host proteins and activation of the immune system, [29], [30]."}, "[2]": {"tested_on": "curli-mediated biofilm formation by E. coli", "experiment": "Effect on formation of biofilm, crystal violet microtiter plate", "assay_type": "cell-based, Escherichia coli", "procedure": "To measure the ability of the bacteria to adhere and to form biofilm a crystal violet assay in polystyrene microtiter plates (Costar, Corning, NY, USA) was performed. Bacteria were grown in Luria-Bertani (LB) broth without salt for 24 h at 37°C without shaking. Biofilm was then stained with crystal violet (3%). The dye was solubilized with ethanol (95%) and the optical density was measured at 570 nm.\nPlates were filled with 90 µL bacterial culture of planktonic cells and 10 µL of aqueous solution of LL-37 in the same concentrations as in the susceptibility assay. As control peptides, sLL-37 (Innovagen AB) and VIP [27] with similar structural properties as LL-37 were utilized. The plates were incubated without shaking at 37°C for 20 h. After incubation, the amount of biofilm formed was determined as described above."}, "polymeric CsgA": {"biological_target": "T2, polymeric CsgA (Escherichia coli, UniProt P28307)", "T2 construct": "made in house; host or cells: E. coli LSR12 (C600::csg), co-expressed with CsgG", "T2 sequence (P28307 21-151)": "as above", "experiment": "Surface plasmon resonance, polymeric CsgA", "conditions": "polymeric CsgA immobilized (7000 response units), 0.1 µM peptide, 20 µl/min for 3 min, HBS-EP, Biacore 3000; binding constants not determinable", "procedure": "(§2) Binding analysis of LL-37 to both monomeric and polymeric CsgA was performed with surface plasmon resonance (Biacore 3000 instrument; Biacore AB, Uppsala, Sweden). Both monomeric and polymeric CsgA was immobilized on a CM5 sensor chip (Biacore AB) surface by amine coupling. The chip surface was normalized in 70% glycerol and lanes on the chip were activated with injection of 35 µL 0.05 M N-hydroxysuccinimide (NHS)/0.2 M N-ethyl-N′-[3-dimethylamino) propyl]carbodiimide (EDC). Polymeric or monomeric CsgA (1 µM in 10 mM sodium acetate, pH 4.5) was then immobilized on the chip to 7000 response units and 2000 response units, respectively. After immobilization, the lanes were subjected to 60 µL ethanolamine (1 M, pH 8.5) to deactivate remaining activated carboxylic groups. One lane, activated and deactivated, was used as negative control (without addition of CsgA). Standard Biacore HBS-EP (Biacore AB) was utilized as running buffer, and 0.1 µM LL-37, sLL-37 or VIP were injected at 20 µl/min for 3 min. The surface was regenerated after each cycle with 100 mM HCl."}, "monomeric CsgA": {"biological_target": "T3, monomeric CsgA (Escherichia coli, UniProt P28307)", "T3 construct": "made in house; host or cells: E. coli LSR12 (C600::csg), co-expressed with CsgG", "T3 sequence (P28307 21-151)": "as above", "experiment": "Surface plasmon resonance, monomeric CsgA", "conditions": "monomeric CsgA immobilized (2000 response units), 0.1 µM peptide, 20 µl/min for 3 min, HBS-EP, Biacore 3000; binding constants not determinable", "procedure": "as §2"}, "CsgA fiber formation": {"tested_on": "CsgA fiber formation", "experiment": "CsgA fiber formation, Thioflavin T, confocal microscopy", "assay_type": "biochemical, Escherichia coli", "conditions": "CsgA with equimolar peptide (1∶1), 20 µM ThT, 20 h at 37°C; CsgA alone = 1 arbitrary unit; corrected for peptide fluorescence; two experiments", "procedure": "as §1\nRecombinant monomeric CsgA was mixed with equimolar LL-37, sLL-37 or VIP and 20 µM ThT, and incubated over night at 37°C, washed twice, and suspended in 10 mM Kpi, pH 7.2 before mounting in ProLong Gold antifade mounting medium (Invitrogen). Images were acquired on a Leica TCS SP5 confocal microscope using a 20× objective. Fluorescence intensity was quantified using ImageJ software. The difference in fluorescence intensity of CsgA with and without peptides was calculated and corrected for the contribution of fluorescence from the peptides themselves."}}, "note": "Residues, ends and D or L forms follow the SMILES beside them."}
{"compound": "CC[C@H](C)[C@H](NC(=O)[C@H](CCCCN)NC(=O)[C@H](CCC(=O)O)NC(=O)CNC(=O)CNC(=O)[C@H](CCCCN)NC(=O)[C@H](CCCNC(=N)N)NC(=O)[C@H](CC(C)C)NC(=O)[C@H](CC(C)C)NC(=O)CN)C(=O)NCC(=O)N[C@@H](CCC(=O)O)C(=O)N[C@@H](CCCCN)C(=O)N[C@@H](CC(C)C)C(=O)N[C@@H](CCCCN)C(=O)N[C@@H](CCCCN)C(=O)N[C@H](C(=O)NCC(=O)N[C@@H](CCC(N)=O)C(=O)N[C@@H](CCCCN)C(=O)N[C@H](C(=O)N[C@@H](CCCCN)C(=O)N[C@@H](CC(N)=O)C(=O)N[C@@H](Cc1ccccc1)C(=O)N[C@@H](Cc1ccccc1)C(=O)N[C@@H](CCC(N)=O)C(=O)N[C@@H](CCCCN)C(=O)N[C@@H](CC(C)C)C(=O)N[C@H](C(=O)N1CCC[C@H]1C(=O)N[C@@H](CCC(N)=O)C(=O)N1CCC[C@H]1C(=O)N[C@@H](CCC(=O)O)C(=O)N[C@@H](CCC(N)=O)C(=O)O)C(C)C)[C@@H](C)CC)[C@@H](C)CC", "note": "[mCRAMP] (H-GLLRKGGEKIGEKLKKIGQKIKNFFQKLVPQPEQ-OH; N-terminus and C-terminus assumed)", "values": [{"measurement": "difference in resistance between the strains", "setting": "[1]", "result": "no significant difference in the resistance"}]}
{"compound": "CsgA: major curli subunit, recombinant CsgA-His6", "values": [{"measurement": "time to stationary phase of CsgA polymerization", "setting": "CsgA polymerization; 10 µM CsgA alone", "result": "approximately 300 min"}, {"measurement": "solubility of polymeric CsgA (from CD signal amplitude)", "setting": "CsgA", "result": "decreased solubility due to polymerization"}, {"measurement": "binding to toll-like receptor 2", "setting": "toll-like receptor 2", "result": "binding of CsgA to toll-like receptor 2"}]}
{"compound": "vasoactive intestinal peptide [VIP]", "values": [{"measurement": "reduction of biofilm formation", "setting": "[2]; 2.5 µM peptide, cellulose-negative, curli-expressing E. coli strain, 37°C, 20 h, two experiments in triplicates", "result": 10, "unit": "%"}, {"measurement": "biofilm reduction compared with the effect of LL-37", "setting": "[2]; 2.5 µM, P = 0.001, t-test", "result": "significantly lower reduction than the effect of LL-37"}, {"measurement": "binding / association and dissociation by SPR", "setting": "polymeric CsgA", "result": "faster dissociation rates than LL-37, indicating a weaker binding to CsgA"}, {"measurement": "binding / association and dissociation by SPR", "setting": "monomeric CsgA", "result": "faster dissociation rates than LL-37, indicating a weaker binding to CsgA"}, {"measurement": "inhibition of CsgA polymerization (ThT fluorescence)", "setting": "CsgA polymerization; 10 µM CsgA with different concentrations of peptide", "result": "less pronounced effect on CsgA polymerization than LL-37"}, {"measurement": "fluorescence relative to CsgA alone", "setting": "CsgA fiber formation", "result": "approximately 0.2 arbitrary units"}]}
